{"source": "patent US10501516B2", "about": "“Peptide compound” (TAKEDA PHARMACEUTICAL COMPANY LIMITED, priority 2016, dated 2019)", "note": "Square brackets hold non-standard residues; d marks the D form. Side chains are listed from the residue outwards. Peptide text beside a SMILES is read from it. * marks the point of attachment. Phe(2-F) = N[C@@H](Cc1ccccc1F)C(=O)O; NMeY = CN[C@@H](Cc1ccc(O)cc1)C(=O)O; Palmitoyl = CCCCCCCCCCCCCCCC(=O)*; αMeF = C[C@](N)(Cc1ccccc1)C(=O)O; Iva = CC[C@](C)(N)C(=O)O; Aib = CC(C)(N)C(=O)O", "data": [{"tested_on": "male C57BL/6J mouse", "test": "Evaluation of feeding suppressive action in mice", "format": "in vivo", "settings": "30 nmol/kg s.c. once a day for 3 days; 3-days cumulative food consumption vs solvent control", "experimental": "The feeding suppressive activity of a test compound was examined by the method described below.\nThe test compound was dissolved at a concentration of 30 or 100 nmol/2 mL in a solvent (10% DMSO-containing physiological saline). The test compound solution was subcutaneously administered at a dose of 2 mL/kg to the back of each male C57BL/6J mouse at 8-9 weeks of age (20-26° C., allowed to take food and water ad libitum; raised in the 12-hour bright-12-hour dark cycle). The administration was performed once a day for 3 days. After the administration, the mouse was individually raised in a rearing cage, and given previously weighed food; food consumption for 3 days after the start of administration was measured. The food consumption was calculated by subtracting the amount of remaining food from the weight of the food given on the day of the start of administration. When the food consumption of a control group receiving administration of the solvent alone was regarded as a suppression rate of 0%, the feeding suppressive activity of each test compound was evaluated on the basis of 3-days cumulative food consumption after the start of administration. The food intake suppression rate (%) of the test compound was defined as (Food consumption of the control group−Food consumption of the test compound-administered group)/Food consumption of the control group×100.", "units": {"Rate of feeding suppression (%)": "%"}, "values": [{"compound": "CCCCCCCCCCCCCCCC(=O)NCC(=O)NCC(=O)NCC(=O)NCC(=O)NCCCC[C@H](NC(=O)[C@H](CC(=O)O)NC(=O)[C@H](CO)NC(=O)[C@@H](NC(=O)[C@](C)(Cc1ccccc1)NC(=O)[C@@H](NC(=O)CNC(=O)[C@H](CCC(=O)O)NC(=O)C(C)(C)NC(=O)[C@@H](N)Cc1ccc(O)cc1)[C@@H](C)O)[C@@H](C)O)C(=O)NC(C)(C)C(=O)N[C@H](C(=O)NC(C)(C)C(=O)N[C@@H](CC(C)C)C(=O)N[C@@H](CC(=O)O)C(=O)N[C@@H](CCCCN)C(=O)N[C@@H](CCC(N)=O)C(=O)N[C@@H](C)C(=O)N[C@@H](CCC(N)=O)C(=O)N[C@@](C)(CC)C(=O)N[C@@H](CCC(=O)O)C(=O)N[C@@H](Cc1ccccc1)C(=O)N[C@H](C(=O)N[C@@H](CCCNC(=N)N)C(=O)N[C@@H](Cc1c[nH]cn1)C(=O)N[C@@H](CC(C)C)C(=O)N[C@@H](CC(C)C)C(=O)N[C@@H](CC(N)=O)C(=O)N[C@@H](CCCCN)C(=O)NC(C)(C)C(=O)N[C@H](C(=O)N[C@@H](CCCNC(=N)N)C(=O)N[C@@H](CCC(N)=O)C(=O)N[C@@H](CCCNC(=N)N)C(=O)N[C@@H](Cc1ccccc1F)C(N)=O)[C@@H](C)O)C(C)C)[C@@H](C)CC", "note": "[Example 1] (H-Y[Aib]EGT[αMeF]TSDK([Gly-Gly-Gly-Gly-Palmitoyl])[Aib]I[Aib]LDKQAQ[Iva]EFVRHLLNK[Aib]TRQR[Phe(2-F)]-NH2)", "Rate of feeding suppression (%)": "−37.1"}, {"compound": "CCCCCCCCCCCCCCCC(=O)NCC(=O)NCC(=O)NCC(=O)NCC(=O)NCCCC[C@H](NC(=O)[C@H](CC(=O)O)NC(=O)[C@H](CO)NC(=O)[C@@H](NC(=O)[C@](C)(Cc1ccccc1)NC(=O)[C@@H](NC(=O)CNC(=O)[C@H](CCC(=O)O)NC(=O)C(C)(C)NC(=O)[C@@H](N)Cc1ccc(O)cc1)[C@@H](C)O)[C@@H](C)O)C(=O)N[C@@H](C)C(=O)N[C@H](C(=O)NC(C)(C)C(=O)N[C@@H](CC(C)C)C(=O)N[C@@H](CC(=O)O)C(=O)N[C@@H](CCCCN)C(=O)N[C@@H](CCC(N)=O)C(=O)N[C@@H](CCCNC(=N)N)C(=O)N[C@@H](CCC(N)=O)C(=O)N[C@@](C)(CC)C(=O)N[C@@H](CCC(=O)O)C(=O)N[C@@H](Cc1ccccc1)C(=O)N[C@H](C(=O)N[C@@H](CCCNC(=N)N)C(=O)N[C@@H](Cc1c[nH]cn1)C(=O)N[C@@H](CC(C)C)C(=O)N[C@@H](CC(C)C)C(=O)N[C@@H](CC(N)=O)C(=O)N[C@@H](CCCCN)C(=O)NC(C)(C)C(=O)N[C@H](C(=O)N[C@@H](CCCNC(=N)N)C(=O)N[C@@H](CCC(N)=O)C(=O)N[C@@H](CCCNC(=N)N)C(=O)N[C@@H](Cc1ccc(O)cc1)C(N)=O)[C@@H](C)O)C(C)C)[C@@H](C)CC", "note": "[Example 11] (H-Y[Aib]EGT[αMeF]TSDK([Gly-Gly-Gly-Gly-Palmitoyl])AI[Aib]LDKQRQ[Iva]EFVRHLLNK[Aib]TRQRY-NH2)", "Rate of feeding suppression (%)": "−48.1"}, {"compound": "CCCCCCCCCCCCCCCC(=O)NCC(=O)NCC(=O)NCC(=O)NCC(=O)NCCCC[C@H](NC(=O)[C@H](CC(=O)O)NC(=O)[C@H](CO)NC(=O)[C@@H](NC(=O)[C@](C)(Cc1ccccc1)NC(=O)[C@@H](NC(=O)CNC(=O)[C@H](CCC(=O)O)NC(=O)C(C)(C)NC(=O)[C@@H](N)Cc1ccc(O)cc1)[C@@H](C)O)[C@@H](C)O)C(=O)N[C@@H](CO)C(=O)N[C@H](C(=O)NC(C)(C)C(=O)N[C@@H](CC(C)C)C(=O)N[C@@H](CC(=O)O)C(=O)N[C@@H](CCCCN)C(=O)N[C@@H](CCC(N)=O)C(=O)N[C@@H](CCCNC(=N)N)C(=O)N[C@@H](CCC(N)=O)C(=O)N[C@@](C)(CC)C(=O)N[C@@H](CCC(=O)O)C(=O)N[C@@H](Cc1ccccc1)C(=O)N[C@H](C(=O)N[C@@H](CCCNC(=N)N)C(=O)N[C@@H](Cc1c[nH]cn1)C(=O)N[C@@H](CC(C)C)C(=O)N[C@@H](CC(C)C)C(=O)N[C@@H](CC(N)=O)C(=O)N[C@@H](CCCCN)C(=O)NC(C)(C)C(=O)N[C@H](C(=O)N[C@@H](CCCNC(=N)N)C(=O)N[C@@H](CCC(N)=O)C(=O)N[C@@H](CCCNC(=N)N)C(=O)N[C@@H](Cc1ccc(O)cc1)C(N)=O)[C@@H](C)O)C(C)C)[C@@H](C)CC", "note": "[Example 15] (H-Y[Aib]EGT[αMeF]TSDK([Gly-Gly-Gly-Gly-Palmitoyl])SI[Aib]LDKQRQ[Iva]EFVRHLLNK[Aib]TRQRY-NH2)", "Rate of feeding suppression (%)": "−41.2"}, {"compound": "CCCCCCCCCCCCCCCC(=O)NCC(=O)NCC(=O)NCC(=O)NCC(=O)NCCCC[C@H](NC(=O)[C@H](CC(=O)O)NC(=O)[C@H](CO)NC(=O)[C@@H](NC(=O)[C@](C)(Cc1ccccc1)NC(=O)[C@@H](NC(=O)CNC(=O)[C@H](CCC(=O)O)NC(=O)C(C)(C)NC(=O)[C@@H](N)Cc1ccc(O)cc1)[C@@H](C)O)[C@@H](C)O)C(=O)NC(C)(C)C(=O)N[C@@H](CCCCN)C(=O)NC(C)(C)C(=O)N[C@@H](CC(C)C)C(=O)N[C@@H](CC(=O)O)C(=O)N[C@@H](CCCCN)C(=O)N[C@@H](CCC(N)=O)C(=O)N[C@@H](CCCNC(=N)N)C(=O)N[C@@H](CCC(N)=O)C(=O)N[C@@](C)(CC)C(=O)N[C@@H](CCC(=O)O)C(=O)N[C@@H](Cc1ccccc1)C(=O)N[C@H](C(=O)N[C@@H](CCCNC(=N)N)C(=O)N[C@@H](Cc1c[nH]cn1)C(=O)N[C@@H](CC(C)C)C(=O)N[C@@H](CC(C)C)C(=O)N[C@@H](CC(N)=O)C(=O)N[C@@H](CCCCN)C(=O)NC(C)(C)C(=O)N[C@H](C(=O)N[C@@H](CCCNC(=N)N)C(=O)N[C@@H](CCC(N)=O)C(=O)N[C@@H](CCCNC(=N)N)C(=O)N[C@@H](Cc1ccc(O)cc1)C(N)=O)[C@@H](C)O)C(C)C", "note": "[Example 19] (H-Y[Aib]EGT[αMeF]TSDK([Gly-Gly-Gly-Gly-Palmitoyl])[Aib]K[Aib]LDKQRQ[Iva]EFVRHLLNK[Aib]TRQRY-NH2)", "Rate of feeding suppression (%)": "−37.0"}, {"compound": "CCCCCCCCCCCCCCCC(=O)NCC(=O)NCC(=O)NCC(=O)NCC(=O)NCCCC[C@H](NC(=O)[C@H](CC(=O)O)NC(=O)[C@H](CO)NC(=O)[C@@H](NC(=O)[C@](C)(Cc1ccccc1)NC(=O)[C@@H](NC(=O)CNC(=O)[C@H](CCC(=O)O)NC(=O)C(C)(C)NC(=O)[C@H](Cc1ccc(O)cc1)NC)[C@@H](C)O)[C@@H](C)O)C(=O)NC(C)(C)C(=O)N[C@@H](CCCCN)C(=O)NC(C)(C)C(=O)N[C@@H](CC(C)C)C(=O)N[C@@H](CC(=O)O)C(=O)N[C@@H](CCCCN)C(=O)N[C@@H](CCC(N)=O)C(=O)N[C@@H](CCCNC(=N)N)C(=O)N[C@@H](CCC(N)=O)C(=O)N[C@@](C)(CC)C(=O)N[C@@H](CCC(=O)O)C(=O)N[C@@H](Cc1ccccc1)C(=O)N[C@H](C(=O)N[C@@H](CCCNC(=N)N)C(=O)N[C@@H](Cc1c[nH]cn1)C(=O)N[C@@H](CC(C)C)C(=O)N[C@@H](CC(C)C)C(=O)N[C@@H](CC(N)=O)C(=O)N[C@@H](CCCCN)C(=O)NC(C)(C)C(=O)N[C@H](C(=O)N[C@@H](CCCNC(=N)N)C(=O)N[C@@H](CCC(N)=O)C(=O)N[C@@H](CCCNC(=N)N)C(=O)N[C@@H](Cc1ccc(O)cc1)C(N)=O)[C@@H](C)O)C(C)C", "note": "[Example 21] (H-[NMeY][Aib]EGT[αMeF]TSDK([Gly-Gly-Gly-Gly-Palmitoyl])[Aib]K[Aib]LDKQRQ[Iva]EFVRHLLNK[Aib]TRQRY-NH2)", "Rate of feeding suppression (%)": "−27.9"}, {"compound": "CCCCCCCCCCCCCCCC(=O)NCC(=O)NCC(=O)NCC(=O)NCC(=O)NCCCC[C@H](NC(=O)[C@H](CC(=O)O)NC(=O)[C@H](CO)NC(=O)[C@@H](NC(=O)[C@](C)(Cc1ccccc1)NC(=O)[C@@H](NC(=O)CNC(=O)[C@H](CCC(=O)O)NC(=O)C(C)(C)NC(=O)[C@H](Cc1ccc(O)cc1)NC)[C@@H](C)O)[C@@H](C)O)C(=O)N[C@@H](CO)C(=O)N[C@@H](CCCCN)C(=O)NC(C)(C)C(=O)N[C@@H](CC(C)C)C(=O)N[C@@H](CC(=O)O)C(=O)N[C@@H](CCCCN)C(=O)N[C@@H](CCC(N)=O)C(=O)N[C@@H](CCCNC(=N)N)C(=O)N[C@@H](CCC(N)=O)C(=O)N[C@@](C)(CC)C(=O)N[C@@H](CCC(=O)O)C(=O)N[C@@H](Cc1ccccc1)C(=O)N[C@H](C(=O)N[C@@H](CCCNC(=N)N)C(=O)N[C@@H](Cc1c[nH]cn1)C(=O)N[C@@H](CC(C)C)C(=O)N[C@@H](CC(C)C)C(=O)N[C@@H](CC(N)=O)C(=O)N[C@@H](CCCCN)C(=O)NC(C)(C)C(=O)N[C@H](C(=O)N[C@@H](CCCNC(=N)N)C(=O)N[C@@H](CCC(N)=O)C(=O)N[C@@H](CCCNC(=N)N)C(=O)N[C@@H](Cc1ccc(O)cc1)C(N)=O)[C@@H](C)O)C(C)C", "note": "[Example 25] (H-[NMeY][Aib]EGT[αMeF]TSDK([Gly-Gly-Gly-Gly-Palmitoyl])SK[Aib]LDKQRQ[Iva]EFVRHLLNK[Aib]TRQRY-NH2)", "Rate of feeding suppression (%)": "−41.7"}, {"compound": "CCCCCCCCCCCCCCCC(=O)NCC(=O)NCC(=O)NCC(=O)NCC(=O)NCCCC[C@H](NC(=O)[C@H](CC(=O)O)NC(=O)[C@H](CO)NC(=O)[C@@H](NC(=O)[C@](C)(Cc1ccccc1)NC(=O)[C@@H](NC(=O)CNC(=O)[C@H](CCC(=O)O)NC(=O)C(C)(C)NC(=O)[C@H](Cc1ccc(O)cc1)NC)[C@@H](C)O)[C@@H](C)O)C(=O)NC(C)(C)C(=O)N[C@H](C(=O)NC(C)(C)C(=O)N[C@@H](CC(C)C)C(=O)N[C@@H](CC(=O)O)C(=O)N[C@@H](CCCCN)C(=O)N[C@@H](CCC(N)=O)C(=O)N[C@@H](C)C(=O)N[C@@H](CCC(N)=O)C(=O)N[C@@](C)(CC)C(=O)N[C@@H](CCC(=O)O)C(=O)N[C@@H](Cc1ccccc1)C(=O)N[C@H](C(=O)N[C@@H](CCCNC(=N)N)C(=O)N[C@@H](Cc1c[nH]cn1)C(=O)N[C@@H](CC(C)C)C(=O)N[C@@H](CC(C)C)C(=O)N[C@@H](CC(N)=O)C(=O)N[C@@H](CCCCN)C(=O)NC(C)(C)C(=O)N[C@H](C(=O)N[C@@H](CCCNC(=N)N)C(=O)N[C@@H](CCC(N)=O)C(=O)N[C@@H](CCCNC(=N)N)C(=O)N[C@@H](Cc1ccc(O)cc1)C(N)=O)[C@@H](C)O)C(C)C)[C@@H](C)CC", "note": "[Example 29] (H-[NMeY][Aib]EGT[αMeF]TSDK([Gly-Gly-Gly-Gly-Palmitoyl])[Aib]I[Aib]LDKQAQ[Iva]EFVRHLLNK[Aib]TRQRY-NH2)", "Rate of feeding suppression (%)": "−43.7"}]}]}
